Experiment: on-resin Glaser oxidative coupling of two terminal alkynes (i,i+7 side chains) to 1,3-diyne; CuCl 5 eq, 4,4'-bis(hydroxymethyl)-2,2'-bipyridine 7.5 eq, DIPEA 20 eq, microwave
Conditions: the molecule shown is the open-chain precursor, DMF, 10.0 mM, 60.0 °C, 3.0 h

Q: With `C#CCCCC[C@](C)(NC(=O)[C@H](CCCCNC(=O)OC(C)(C)C)NC(=O)[C@H](C)NC(=O)CCCCCNC(=O)OCC1c2ccccc2-c2ccccc21)C(=O)N[C@@H](Cc1ccc(OC(C)(C)C)cc1)C(=O)N[C@@H](C)C(=O)N[C@@H](CCCNC(=N)NS(=O)(=O)c1c(C)c(C)c2c(c1C)CC(C)(C)O2)C(=O)N[C@@H](CCCC)C(=O)NCC(=O)N[C@@H](CCCNC(=N)NS(=O)(=O)c1c(C)c(C)c2c(c1C)CC(C)(C)O2)C(=O)N[C@@](C)(CCCCC#C)C(=O)N[C@@H](CC(C)C)C(=O)N[C@@H](CCCCNC(=O)OC(C)(C)C)C(=O)N[C@@H](CCC(=O)OC(C)(C)C)C(=O)N[C@H](C(=O)N[C@@H](C)C(=O)N[C@@H](CCCCNC(=O)OC(C)(C)C)C(N)=O)[C@@H](C)CC` as the molecule, how does the ring closure, conversion by HPLC (34-membered ring) read?
A: 65%

Q: For `C#CCCCCCC[C@](C)(NC(=O)[C@H](CCCCNC(=O)OC(C)(C)C)NC(=O)[C@H](C)NC(=O)CCCCCNC(=O)OCC1c2ccccc2-c2ccccc21)C(=O)N[C@@H](Cc1ccc(OC(C)(C)C)cc1)C(=O)N[C@@H](C)C(=O)N[C@@H](CCCNC(=N)NS(=O)(=O)c1c(C)c(C)c2c(c1C)CC(C)(C)O2)C(=O)N[C@@H](CCCC)C(=O)NCC(=O)N[C@@H](CCCNC(=N)NS(=O)(=O)c1c(C)c(C)c2c(c1C)CC(C)(C)O2)C(=O)N[C@@](C)(CCCCCCC#C)C(=O)N[C@@H](CC(C)C)C(=O)N[C@@H](CCCCNC(=O)OC(C)(C)C)C(=O)N[C@@H](CCC(=O)OC(C)(C)C)C(=O)N[C@H](C(=O)N[C@@H](C)C(=O)N[C@@H](CCCCNC(=O)OC(C)(C)C)C(N)=O)[C@@H](C)CC`, which ring closure, conversion by HPLC (38-membered ring) is on record?
A: 100%

Q: Which ring closure, conversion by HPLC (36-membered ring) does the source give for `C#CCCCCC[C@@](C)(NC(=O)[C@H](CCCCNC(=O)OC(C)(C)C)NC(=O)[C@H](C)NC(=O)CCCCCNC(=O)OCC1c2ccccc2-c2ccccc21)C(=O)N[C@@H](Cc1ccc(OC(C)(C)C)cc1)C(=O)N[C@@H](C)C(=O)N[C@@H](CCCNC(=N)NS(=O)(=O)c1c(C)c(C)c2c(c1C)CC(C)(C)O2)C(=O)N[C@@H](CCCC)C(=O)NCC(=O)N[C@@H](CCCNC(=N)NS(=O)(=O)c1c(C)c(C)c2c(c1C)CC(C)(C)O2)C(=O)N[C@@](C)(CCCCCC#C)C(=O)N[C@@H](CC(C)C)C(=O)N[C@@H](CCCCNC(=O)OC(C)(C)C)C(=O)N[C@@H](CCC(=O)OC(C)(C)C)C(=O)N[C@H](C(=O)N[C@@H](C)C(=O)N[C@@H](CCCCNC(=O)OC(C)(C)C)C(N)=O)[C@@H](C)CC` here?
A: 94%

Q: With `C#CCCCCC[C@](C)(NC(=O)[C@H](CCCCNC(=O)OC(C)(C)C)NC(=O)[C@H](C)NC(=O)CCCCCNC(=O)OCC1c2ccccc2-c2ccccc21)C(=O)N[C@@H](Cc1ccc(OC(C)(C)C)cc1)C(=O)N[C@@H](C)C(=O)N[C@@H](CCCNC(=N)NS(=O)(=O)c1c(C)c(C)c2c(c1C)CC(C)(C)O2)C(=O)N[C@@H](CCCC)C(=O)NCC(=O)N[C@@H](CCCNC(=N)NS(=O)(=O)c1c(C)c(C)c2c(c1C)CC(C)(C)O2)C(=O)N[C@@](C)(CCCCCC#C)C(=O)N[C@@H](CC(C)C)C(=O)N[C@@H](CCCCNC(=O)OC(C)(C)C)C(=O)N[C@@H](CCC(=O)OC(C)(C)C)C(=O)N[C@H](C(=O)N[C@@H](C)C(=O)N[C@@H](CCCCNC(=O)OC(C)(C)C)C(N)=O)[C@@H](C)CC` as the molecule, how does the ring closure, conversion by HPLC (36-membered ring) read?
A: 100%

Q: Which ring closure, conversion by HPLC (36-membered ring) does the source give for `C#CCCCCC[C@@](C)(NC(=O)[C@H](CCCCNC(=O)OC(C)(C)C)NC(=O)[C@H](C)NC(=O)CCCCCNC(=O)OCC1c2ccccc2-c2ccccc21)C(=O)N[C@@H](Cc1ccc(OC(C)(C)C)cc1)C(=O)N[C@@H](C)C(=O)N[C@@H](CCCNC(=N)NS(=O)(=O)c1c(C)c(C)c2c(c1C)CC(C)(C)O2)C(=O)N[C@@H](CCCC)C(=O)NCC(=O)N[C@@H](CCCNC(=N)NS(=O)(=O)c1c(C)c(C)c2c(c1C)CC(C)(C)O2)C(=O)N[C@](C)(CCCCCC#C)C(=O)N[C@@H](CC(C)C)C(=O)N[C@@H](CCCCNC(=O)OC(C)(C)C)C(=O)N[C@@H](CCC(=O)OC(C)(C)C)C(=O)N[C@H](C(=O)N[C@@H](C)C(=O)N[C@@H](CCCCNC(=O)OC(C)(C)C)C(N)=O)[C@@H](C)CC` here?
A: 68%

— article PMC10946806, “Development of Bifunctional, Raman Active Diyne‐Girder Stapled α‐Helical Peptides” (Chemistry (Weinheim an Der Bergstrasse, Germany), 2023)
